The values below come from patent US20240207267A1, “(R)-Glutarimide CRBN Ligands and Methods of Use” (BeiGene Switzerland GmbH, priority 2021, published 2024).

Molecules are shown by their SMILES. pIC50: −log10 of the molar value. A value given as a limit tells only on which side of the number the result lay.

One test deals with CRBN&DDB1 protein (Homo sapiens (Human), UniProt Q96SW2). In words: CRBN&DDB1 HTRF (TR-FRET) assay, blocking binding of biotin labeled thalidomide. As to conditions: CRBN&DDB1 protein (His Tag), 30 nM biotin labeled thalidomide. Here is the method:
Biochemical potency of compound was determined by using CRBN& DDB1 protein (His Tag). Compounds were tested for blocking the binding of CRBN&DDB1 protein (CRBN, aa 40-442, DDB1, 1-1140, Viva Biotech) with biotin labeled thalidomide in an assay based on the time-resolved fluorescence-resonance energy transfer (TR-FRET) methodology. The assay was carried out in 384-well low volume black plates in a reaction mixture containing CRBN& DDB1 protein, 30 nM biotin labeled thalidomide and 0-10 μM compound in buffer containing 50 mM HEPES pH7.5, 50 mM NaCl, 0.01% BSA, 1 mM DTT and 0.015% Brij-35. The protein was preincubated with compound for 60 minutes at room temperature and biotin labeled thalidomide was added to plate. After further incubation at room temperature for 60 minutes detection reagents Mab Anti-6His Eu cryptate Gold (Cisbio, Cat #61HI2KLB) and Streptavidin-XL665 (Cisbio, Cat #610SAXLG) were added to plate. Plates were sealed and incubated at room temperature for 1 hour, and the TR-FRET signals (ex337 nm, em665 nm/620 nm) were recorded on a PHERAstar FSX plate reader (BMG Labtech). The inhibition percentage of CRBN& DDB1 protein interaction with biotin labeled thalidomide in presence of increasing concentrations of compounds was calculated based on the ratio of fluorescence at 665 nm to that at 620 nm. IC50 was derived from fitting the dose-response % inhibition data to the four-parameter logistic model by Dotmatics.
Four-parameter logistic equation: Y=Bottom+(Top−Bottom)/(1+10^((LogIC50−X) *HillSlope)). While X is Log of compound concentration. Y is % inhibition at X. Bottom is the bottom of the curve effect. Top is the top of the curve effect. HillSlope is the hill slope factor.
On the technique in general: Time-resolved FRET reads energy transfer from a long-lived donor to a nearby acceptor.

Test [1] relates to EGFR Del19/T790M/C797S (H1975-clone #28 cells). As to the kind of experiment: EGFR degradation HTRF assay in H1975-clone #28 cells. The format is cell-based. As to conditions: H1975-clone #28(Del19/T790M/C797S) cells, 16 h treatment, Table 2; for DC50: read-out: H1975 # 28 DTC DC50; for H1975 # 28 DTC Dmax: maximum percentage of degradation. On the procedure: H1975-clone #28(Del19/T790M/C797S) was stably expressed in H1975 cell lines (from ATCC) by lentivirus-mediated over-expression. The EGFR over-expressed cells then underwent gene knockout, in which the EGFR targeting sgRNA was designed to only target the endogenous EGFR copies and preserve the exogenous EGFR copies. Followed by the gene knockout, the edited H1975 cells were seeded in 96 well plates at the concentration of […], cultured for about 2 weeks to allow single clones formation. The formed clones were screened by DNA sequencing and whole exon sequencing analysis for the desired edition. H1975-clone #28 was finally confirmed as homozygous Del19/T790M/C797S EGFR clone
(§1) BaF3-LTC(L858R/T790M/C797S) and BaF3-DTC(Del19/T790M/C797S) cells are treated with compounds diluted in 0.2% DMSO cell culture medium and incubate for 16 h, 37° C., 5% CO2, H1975- #28 cells are treated with compounds diluted in 0.2% DMSO cell culture medium on day 2, incubate for 16 h, 37° C., 5% CO2. the final concentration of compounds in all assay is start with 10 uM, 5-fold dilution, total 8 doses were included.
(§2) After 16 h treatment, add HTRF lysis buffer to each well; seal the plate and incubate 1 hour at room temperature on a plate shaker; Once the cells are lysed, 16 μL of cell lysate are transferred to a PE 384-well HTRF detection plate; 4 μL of pre-mixed HTRF antibodies are added to each well; Cover the plate with a plate sealer, spin 1000 rpm for 1 min, Incubate overnight at room temperature; Read on BMG PheraStar with HTRF protocol (337 nm-665 nm-620 nm).
(§3) The IC50 (DC50) value of a compound can be obtained by fitting the following equation
(§4) Y=Bottom+(TOP−Bottom)/(1+((IC50/X)^hillslope))
(§5) Wherein, X and Y are known values, and IC50, Hillslope, Top and Bottom are the parameters obtained by fitting with software. Y is the inhibition percentage (calculated from the equation), X is the concentration of the compound; IC50 is the concentration of the compound when the 50% inhibition is reached. The smaller the IC50 value is, the stronger the inhibitory ability of the compound is. Vice versa, the higher the IC50 value is, the weaker the ability the inhibitory ability of the compound is; Hillslope represents the slope of the fitted curve, generally around 1*; Bottom represents the minimum value of the curve obtained by data fitting, which is generally 0%±20%; Top represents the maximum value of the curve obtained by data fitting, which is generally 100%±20%. The experimental data were fitted by calculating and analyzing with Dotmatics data analysis software.

Test [2] concerns the target EGFR L858R/T790M/C797S (BaF3-LTC cells) (Homo sapiens (Human), UniProt P00533, C797S/L858R/T790M). As to the kind of experiment: EGFR degradation HTRF assay in BaF3-LTC cells. The format is cell-based. As to conditions: 16 h treatment; for DC50: Table 2, read-out: BaF3-LTC DC50; for Dmax: maximum percentage of degradation, Table 2, read-out: BaF3-LTC Dmax. On the procedure:
as §1, §2, §3, §4, §5

Chain of CRBN&DDB1 protein (Q96SW2 40-442): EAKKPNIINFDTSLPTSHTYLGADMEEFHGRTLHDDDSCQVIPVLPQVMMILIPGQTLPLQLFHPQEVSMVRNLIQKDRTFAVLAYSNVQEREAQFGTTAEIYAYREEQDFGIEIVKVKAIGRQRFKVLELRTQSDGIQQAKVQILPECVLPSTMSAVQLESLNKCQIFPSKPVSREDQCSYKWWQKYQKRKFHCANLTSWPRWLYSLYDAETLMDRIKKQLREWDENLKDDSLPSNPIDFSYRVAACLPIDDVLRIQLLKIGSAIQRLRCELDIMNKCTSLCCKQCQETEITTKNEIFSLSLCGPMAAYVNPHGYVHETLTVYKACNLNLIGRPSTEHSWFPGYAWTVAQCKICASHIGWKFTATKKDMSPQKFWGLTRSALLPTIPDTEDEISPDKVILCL
Chain of CRBN&DDB1 protein (Q16531 whole entry partner, the tested form may be a part): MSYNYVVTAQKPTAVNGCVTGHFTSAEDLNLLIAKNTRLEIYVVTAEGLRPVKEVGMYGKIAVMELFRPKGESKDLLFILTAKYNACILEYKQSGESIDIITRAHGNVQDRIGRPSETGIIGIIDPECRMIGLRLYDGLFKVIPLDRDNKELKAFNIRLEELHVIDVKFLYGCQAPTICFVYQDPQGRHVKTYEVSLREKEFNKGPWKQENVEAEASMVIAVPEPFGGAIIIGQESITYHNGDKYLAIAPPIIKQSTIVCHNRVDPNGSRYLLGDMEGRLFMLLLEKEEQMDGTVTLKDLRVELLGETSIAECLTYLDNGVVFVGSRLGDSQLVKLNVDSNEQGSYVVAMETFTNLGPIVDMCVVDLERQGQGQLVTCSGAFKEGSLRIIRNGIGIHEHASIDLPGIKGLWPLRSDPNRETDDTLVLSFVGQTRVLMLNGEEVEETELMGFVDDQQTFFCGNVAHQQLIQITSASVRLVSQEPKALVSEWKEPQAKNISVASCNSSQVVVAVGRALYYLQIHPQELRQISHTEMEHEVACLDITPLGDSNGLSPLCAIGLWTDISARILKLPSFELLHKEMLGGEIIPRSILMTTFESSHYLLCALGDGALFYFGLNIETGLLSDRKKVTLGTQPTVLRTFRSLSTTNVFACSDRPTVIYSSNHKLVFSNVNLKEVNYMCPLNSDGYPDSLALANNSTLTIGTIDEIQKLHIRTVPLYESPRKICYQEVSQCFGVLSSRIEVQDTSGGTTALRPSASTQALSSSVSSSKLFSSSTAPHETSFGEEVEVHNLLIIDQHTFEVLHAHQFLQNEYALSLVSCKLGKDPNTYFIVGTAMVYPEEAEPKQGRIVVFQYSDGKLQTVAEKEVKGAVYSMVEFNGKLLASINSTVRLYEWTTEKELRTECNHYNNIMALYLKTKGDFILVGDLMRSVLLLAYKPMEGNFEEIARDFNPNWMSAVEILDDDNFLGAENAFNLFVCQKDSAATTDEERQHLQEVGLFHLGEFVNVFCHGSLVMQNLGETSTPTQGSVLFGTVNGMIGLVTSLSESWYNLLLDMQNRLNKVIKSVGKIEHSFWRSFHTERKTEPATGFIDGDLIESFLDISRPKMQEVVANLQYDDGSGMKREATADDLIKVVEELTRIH
Chain of EGFR L858R/T790M/C797S (BaF3-LTC cells) (P00533 25-1210 T790M/C797S/L858R): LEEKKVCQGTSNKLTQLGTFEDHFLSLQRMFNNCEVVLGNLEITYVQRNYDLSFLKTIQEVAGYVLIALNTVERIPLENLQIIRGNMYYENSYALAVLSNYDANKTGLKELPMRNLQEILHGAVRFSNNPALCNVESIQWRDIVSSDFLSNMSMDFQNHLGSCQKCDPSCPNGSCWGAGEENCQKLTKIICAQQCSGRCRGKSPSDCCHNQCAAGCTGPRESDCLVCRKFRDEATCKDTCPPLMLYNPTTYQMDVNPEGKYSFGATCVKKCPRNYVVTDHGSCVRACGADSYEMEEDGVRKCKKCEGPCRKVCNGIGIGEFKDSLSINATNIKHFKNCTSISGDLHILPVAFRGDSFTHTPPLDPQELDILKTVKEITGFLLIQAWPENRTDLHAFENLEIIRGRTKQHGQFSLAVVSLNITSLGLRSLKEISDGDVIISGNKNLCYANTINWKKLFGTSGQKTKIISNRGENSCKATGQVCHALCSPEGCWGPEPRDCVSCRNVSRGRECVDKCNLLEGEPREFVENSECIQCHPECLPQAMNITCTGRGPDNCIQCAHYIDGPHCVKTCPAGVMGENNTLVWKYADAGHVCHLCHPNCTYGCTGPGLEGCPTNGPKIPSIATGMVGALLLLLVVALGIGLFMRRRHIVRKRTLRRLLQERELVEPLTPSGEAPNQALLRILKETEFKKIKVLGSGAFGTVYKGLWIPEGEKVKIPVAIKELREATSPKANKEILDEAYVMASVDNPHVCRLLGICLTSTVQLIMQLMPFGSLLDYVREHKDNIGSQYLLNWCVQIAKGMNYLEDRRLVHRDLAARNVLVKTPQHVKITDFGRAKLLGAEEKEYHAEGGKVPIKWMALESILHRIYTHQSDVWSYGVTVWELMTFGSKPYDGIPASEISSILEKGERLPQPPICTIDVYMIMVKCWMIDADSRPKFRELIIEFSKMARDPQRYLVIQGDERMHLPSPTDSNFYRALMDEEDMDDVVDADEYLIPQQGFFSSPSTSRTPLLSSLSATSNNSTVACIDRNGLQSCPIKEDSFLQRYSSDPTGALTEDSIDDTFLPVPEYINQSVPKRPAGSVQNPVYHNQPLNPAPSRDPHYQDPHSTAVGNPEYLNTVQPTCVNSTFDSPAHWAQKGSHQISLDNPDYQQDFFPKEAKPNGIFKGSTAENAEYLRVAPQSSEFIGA

Broadly, the pIC50 is the IC50 on a negative log10 scale, so that one unit is a factor of ten. A high value points to a small IC50. Molecule `CC1(C)CN(c2cc(F)c([C@H]3CCC(=O)NC3=O)c(F)c2)C[C@H]1C(=O)O` [Example 14, (S)-1-(4-((R)-2,6-dioxopiperidin-3-yl)-3,5-difluorophenyl)-4,4-dimethylpyrrolidine-3-carboxylic acid] gave a pIC50 at CRBN&DDB1 protein of 7.62.

In the case of `O=C1CC[C@H](c2c(F)cc(N3CC[C@@H](CO)C3)cc2F)C(=O)N1` [Example 7, (R)-3-(2,6-difluoro-4-((R)-3-(hydroxymethyl)pyrrolidin-1-yl)phenyl)piperidine-2,6-dione], the pIC50 at CRBN&DDB1 protein was 7.66.

Regarding `O=C1CCC(c2ccc(CCO)cc2)C(=O)N1` (stereo not shown) [Example 15, 3-(4-(2-hydroxyethyl)phenyl)piperidine-2,6-dione], the pIC50 on CRBN&DDB1 protein is 6.62.

In turn, `O=C1CCC(c2c(F)cc(N3CC(CO)C3)cc2F)C(=O)N1` (stereo not shown) [Example 9, 3-(2,6-difluoro-4-(3-(hydroxymethyl)azetidin-1-yl)phenyl)piperidine-2,6-dione] showed a pIC50 at CRBN&DDB1 protein of 7.19.

For orientation: DC50 means the concentration at which degradation of the target reaches its halfway point. As to `CCc1ccc2c(P(C)(C)=O)c(Nc3nc(Nc4cc(CC)c(N5CCC(N6CCN(CCc7cc(F)c([C@H]8CCC(=O)NC8=O)c(F)c7)CC6)CC5)cc4OC)ncc3Br)ccc2n1` [Example 21, (R)-3-(4-(2-(4-(1-(4-((5-bromo-4-((5-(dimethylphosphoryl)-2-ethylquinolin-6-yl)amino)pyrimidin-2-yl)amino)-2-ethyl-5-methoxyphenyl)piperidin-4-yl)piperazin-1-yl)ethyl)-2,6-difluorophenyl)piperidine-2,6-dione], the DC50 in test [1] amounted to 0.78 nM; in test [2] it was 6.77 nM. The “H1975 # 28 DTC Dmax” value in test [1] came out at 89.6%.

At CRBN&DDB1 protein, `O=C1CCC(c2ccc(N3CC[C@@H](C(=O)O)C3)cc2)C(=O)N1` (stereo partly drawn) [Example 12, (3R)-1-(4-(2,6-dioxopiperidin-3-yl)phenyl)pyrrolidine-3-carboxylic acid] had a pIC50 of 6.75.

Usually Dmax stands for the largest share of the target that was removed. `CCc1cc(Nc2ncc(Br)c(Nc3ccc4nc(C)ccc4c3P(C)(C)=O)n2)c(OC)cc1N1CCC(N2CCN(C(=O)[C@@H]3CCN(c4ccc([C@@H]5CCC(=O)NC5=O)cc4)C3)CC2)CC1` [Example 29, (S)-3-(4-((R)-3-(4-(1-(4-((5-bromo-4-((5-(dimethylphosphoryl)-2-methylquinolin-6-yl)amino)pyrimidin-2-yl)amino)-2-ethyl-5-methoxyphenyl)piperidin-4-yl)piperazine-1-carbonyl)pyrrolidin-1-yl)phenyl)piperidine-2,6-dione]: in test [1], the DC50 is over 10000 nM and the “H1975 # 28 DTC Dmax” value is on record as −4.12%. Also, in test [2], the 50% degradation concentration (DC50) was 85.4 nM and the Dmax is 77.1%.

Regarding `CCc1cc(Nc2ncc(Br)c(Nc3ccc4nc(C)ccc4c3P(C)(C)=O)n2)c(OC)cc1N1CCC(N2CCN(C(=O)[C@@H]3CCN(c4ccc([C@H]5CCC(=O)NC5=O)cc4)C3)CC2)CC1` [Example 28, (R)-3-(4-((R)-3-(4-(1-(4-((5-bromo-4-((5-(dimethylphosphoryl)-2-methylquinolin-6-yl)amino)pyrimidin-2-yl)amino)-2-ethyl-5-methoxyphenyl)piperidin-4-yl)piperazine-1-carbonyl)pyrrolidin-1-yl)phenyl)piperidine-2,6-dione], in test [1], the half-maximal degradation concentration (DC50) was 0.595 nM and the “H1975 # 28 DTC Dmax” value was found to be 62.25%. Besides, in test [2], the half-maximal degradation concentration (DC50) was determined as 7.8 nM.

Consider `CCc1ccc2c(P(C)(C)=O)c(Nc3nc(Nc4cc(CC)c(N5CCC(N6CCN(C(=O)[C@@H]7CCN(c8cc(F)c([C@H]9CCC(=O)NC9=O)c(F)c8)C7)CC6)CC5)cc4OC)ncc3Br)ccc2n1` [Example 24, (R)-3-(4-((R)-3-(4-(1-(4-((5-bromo-4-((5-(dimethylphosphoryl)-2-ethylquinolin-6-yl)amino)pyrimidin-2-yl)amino)-2-ethyl-5-methoxyphenyl)piperidin-4-yl)piperazine-1-carbonyl)pyrrolidin-1-yl)-2,6-difluorophenyl)piperidine-2,6-dione], for which the DC50 in test [1] amounted to 1.37 nM; in test [2] it was 8.99 nM. Moreover, the “H1975 # 28 DTC Dmax” value in test [1] is recorded as 82.72%.

Consider `CCc1ccc2c(P(C)(C)=O)c(Nc3nc(Nc4cc(CC)c(N5CCC(N6CCN(C(=O)[C@@H]7CCN(c8cc(F)c([C@@H]9CCC(=O)NC9=O)c(F)c8)C7)CC6)CC5)cc4OC)ncc3Br)ccc2n1` [Example 25, (S)-3-(4-((R)-3-(4-(1-(4-((5-bromo-4-((5-(dimethylphosphoryl)-2-ethylquinolin-6-yl)amino)pyrimidin-2-yl)amino)-2-ethyl-5-methoxyphenyl)piperidin-4-yl)piperazine-1-carbonyl)pyrrolidin-1-yl)-2,6-difluorophenyl)piperidine-2,6-dione], for which, in test [1], the DC50 was over 10000 nM and the “H1975 # 28 DTC Dmax” value is −8.4%. In test [2], the DC50 amounted to 360 nM and the Dmax amounted to 57.2%.

As to `CCc1cc(Nc2ncc(Br)c(Nc3ccc4nc(C)ccc4c3P(C)(C)=O)n2)c(OC2CC2)cc1N1CCC(N2CCN(CCc3cc(F)c([C@H]4CCC(=O)NC4=O)c(F)c3)CC2)CC1` [Example 26, (R)-3-(4-(2-(4-(1-(4-((5-bromo-4-((5-(dimethylphosphoryl)-2-methylquinolin-6-yl)amino)pyrimidin-2-yl)amino)-5-cyclopropoxy-2-ethylphenyl)piperidin-4-yl)piperazin-1-yl)ethyl)-2,6-difluorophenyl)piperidine-2,6-dione], in test [1], the DC50 worked out at 0.851 nM and the “H1975 # 28 DTC Dmax” value was 86.08%.

Consider `CCc1ccc2c(P(C)(C)=O)c(Nc3nc(Nc4cc(CC)c(N5CCC(N6CCN(CCc7cc(F)c([C@@H]8CCC(=O)NC8=O)c(F)c7)CC6)CC5)cc4OC)ncc3Br)ccc2n1` [Example 20, (S)-3-(4-(2-(4-(1-(4-((5-bromo-4-((5-(dimethylphosphoryl)-2-ethylquinolin-6-yl)amino)pyrimidin-2-yl)amino)-2-ethyl-5-methoxyphenyl)piperidin-4-yl)piperazin-1-yl)ethyl)-2,6-difluorophenyl)piperidine-2,6-dione], for which, in test [1], the DC50 is over 10000 nM and the “H1975 # 28 DTC Dmax” value turned out to be 19.09%. For the same molecule, in test [2], the DC50 was found to be 90 nM and the maximal degradation (Dmax) is 69%.

With `CCc1cc(Nc2ncc(Br)c(Nc3ccc4nc(C)ccc4c3P(C)(C)=O)n2)c(OC)cc1N1CCC(N2CCN(C(=O)[C@@H]3CCN(c4cc(F)c([C@H]5CCC(=O)NC5=O)c(F)c4)C3)CC2)CC1` [Example 22, (R)-3-(4-((R)-3-(4-(1-(4-((5-bromo-4-((5-(dimethylphosphoryl)-2-methylquinolin-6-yl)amino)pyrimidin-2-yl)amino)-2-ethyl-5-methoxyphenyl)piperidin-4-yl)piperazine-1-carbonyl)pyrrolidin-1-yl)-2,6-difluorophenyl)piperidine-2,6-dione], in test [1], the DC50 was found to be 1.17 nM and the “H1975 # 28 DTC Dmax” value worked out at 84.8%. For the same molecule, in test [2], the 50% degradation concentration (DC50) is 5.23 nM.
